# Data taken from US12595289B2, “Therapeutic agent for breast cancer comprising BIG3-PHB2 interaction-inhibiting peptide derived from PHB2” (TOKUSHIMA UNIVERSITY, priority 2018, dated 2026).
# Positions of bridges follow the written chain, without caps; N, C: chain ends. Non-standard residues stand in square brackets, D forms with d. Residues, ends and D or L forms follow the SMILES beside them. No end group written: not given here. 2Nal = N[C@@H](Cc1ccc2ccccc2c1)C(=O)O; Nle = CCCC[C@H](N)C(=O)O; PEG = not defined here
# How the values were obtained:
# [1] = system: Human breast cancer cell line MDA-MB-231; conditions: 96 h
# Method: MDA-MB-231 cells were seeded into 48-well plates at a cell density of 1×10^4 cells/200 μL in well. […] Data were obtained from three independent experiments, a graph (mean±standard deviation) was produced using a graphing and data analyzing software SigmaPlot (Systat Software, San Jose, CA, USA), and the 50% inhibition concentration (IC50) of the peptide against cell growth was calculated.
# [2] = system: Human breast cancer cell line MCF-7; assay: Estrogen (E2)-dependent growth assay on MCF-7; format: cell-based; conditions: MCF-7, 10 μM each peptide, 10 nM estrogen, 24 hours
# Method: (§1) Growth assay on MCF-7 was carried out by seeding cells into 48-well plates (2×10^4 cells/200 μL). First, on the next day after seeding, the medium was changed to phenol red-free DMEM/F12 (Thermo Fisher Scientific) supplemented with 10% FBS, 1% Antibiotic/Antimycotic solution, 0.1 mM NEAA, 1 mM sodium pyruvate, and 10 μg/mL insulin. 24 hours later, the cells were treated with 10 nM 17β-estradiol (estrogen, Sigma) alone or with 10 nM estrogen and a PHB2 sequence-derived peptide. Growth assay on MCF-10A was carried out by seeding cells into 48-well plates (2×10^4 cells/200 μL). 24 hours after seeding, PHB2 sequence-derived peptide was added. Growth assays were carried out using the Cell Counting Kit-8 (CCK-8) (Dojindo, Kumamoto, Japan). The data are shown by mean±standard deviation of three independent experiments.
# PHB2 peptides 11-21aa and 76-88aa were cross-linked by three types of cross-linking methods (FIG. 10A: hexafluorobenzene cross-linking, decafluorobiphenyl cross-linking, and disulfide cross-linking) to prepare cross-linked PHB2 peptides (stapled PHB2 peptides) (FIG. 10B), and the suppressive effects of these peptides on estrogen-dependent growth were examined. In the experiment, breast cancer cells MCF-7 were seeded, 10 μM each PHB2 peptide and 10 nM estrogen were added after 48 hours, and the cell number was evaluated after another 24 hours by MTT assay.
# [3] = system: Human breast cancer cell line MCF-7; assay: Estrogen (E2)-dependent growth assay on MCF-7; format: cell-based; conditions: 10 nM estrogen
# [4] = system: PHB2 (Ser39) phosphorylation; assay: Ser39 phosphorylation of PHB2 in MCF-7 by Western blotting; format: cell-based, Human; conditions: MCF-7, 10 μM each peptide, 10 nM estrogen, 24 hours (FIG. 2C)
# Method: (§2) For immunoblot analyses, after performing SDS-PAGE, the membranes blotted with proteins were blocked with 4% BlockAce solution (Dainippon Pharmaceutical, Osaka, Japan) for 3 hours and then incubated to react for 12 hours with antibodies against BIG3 (1:1,000), PHB2 (1:1,000) (Abcam, Cambridge, UK) and phosphorylated PHB2 (Ser39, Scrum, Tokyo, Japan). After allowing interaction with HRP-labeled secondary antibodies (anti-rat IgG-HRP for BIG3, 1:5,000; and anti-rabbit IgG-HRP for PHB2 and phosphorylated PHB2, 1:1,000) (Santa Cruz Biotechnology, Dallas, TX, USA) for 1 hour, the blots were developed with the Enhanced Chemiluminescence (ECL) system (GE Healthcare, Buckinghamshire, UK) and scanned using the Image Reader LAS-3000 mini (Fujifilm, Tokyo, Japan).
# [5] = system: Human breast cancer cell line MDA-MB-231; assay: Combination assay on MDA-MB-231; format: cell-based; conditions: MDA-MB-231, each peptide at respective IC50, 96 hours
# Method: MDA-MB-231 cells were seeded into 48-well plates at a cell density of 1×10^4 cells/200 μL in well. 48 hours later, the medium in each well was exchanged to media supplemented with PHB2 peptide 11-22aa (added concentration: IC50 value), PHB2 peptide 76-90aa (added concentration: IC50 value) and a mixed solution of both peptides (added concentration: respective IC50 value), respectively, or to a medium supplemented with phosphate buffered saline (PBS) as a negative control. After culture for another 96 hours, the cell growth level was measured using the Cell Counting Kit-8 (Dojindo, Kumamoto, Japan). The data obtained was used to calculate relative values based on the growth level when PBS was added, and the graph was produced.
# [6] = system: Normal mammary gland epithelial cell line MCF-10A; assay: Growth assay on normal mammary gland epithelial cells MCF-10A; format: cell-based; conditions: for inhibition ratio of MCF-10A growth: 10 μM each peptide, 24 hours
# Method: as §1
# [7] = biological target: T1, interaction between BIG3 and PHB2 (Homo sapiens, UniProt Q5TH69); assay: Inhibition of BIG3-PHB2 binding in MCF-7, immunoprecipitation with anti-BIG3 antibody and Western blotting; format: cell-based; conditions: MCF-7 (FIG. 3B)
# T1 construct: endogenous in cells; host or cells: MCF-7 (human breast cancer cell line)
# T1 sequence (Q5TH69 whole entry): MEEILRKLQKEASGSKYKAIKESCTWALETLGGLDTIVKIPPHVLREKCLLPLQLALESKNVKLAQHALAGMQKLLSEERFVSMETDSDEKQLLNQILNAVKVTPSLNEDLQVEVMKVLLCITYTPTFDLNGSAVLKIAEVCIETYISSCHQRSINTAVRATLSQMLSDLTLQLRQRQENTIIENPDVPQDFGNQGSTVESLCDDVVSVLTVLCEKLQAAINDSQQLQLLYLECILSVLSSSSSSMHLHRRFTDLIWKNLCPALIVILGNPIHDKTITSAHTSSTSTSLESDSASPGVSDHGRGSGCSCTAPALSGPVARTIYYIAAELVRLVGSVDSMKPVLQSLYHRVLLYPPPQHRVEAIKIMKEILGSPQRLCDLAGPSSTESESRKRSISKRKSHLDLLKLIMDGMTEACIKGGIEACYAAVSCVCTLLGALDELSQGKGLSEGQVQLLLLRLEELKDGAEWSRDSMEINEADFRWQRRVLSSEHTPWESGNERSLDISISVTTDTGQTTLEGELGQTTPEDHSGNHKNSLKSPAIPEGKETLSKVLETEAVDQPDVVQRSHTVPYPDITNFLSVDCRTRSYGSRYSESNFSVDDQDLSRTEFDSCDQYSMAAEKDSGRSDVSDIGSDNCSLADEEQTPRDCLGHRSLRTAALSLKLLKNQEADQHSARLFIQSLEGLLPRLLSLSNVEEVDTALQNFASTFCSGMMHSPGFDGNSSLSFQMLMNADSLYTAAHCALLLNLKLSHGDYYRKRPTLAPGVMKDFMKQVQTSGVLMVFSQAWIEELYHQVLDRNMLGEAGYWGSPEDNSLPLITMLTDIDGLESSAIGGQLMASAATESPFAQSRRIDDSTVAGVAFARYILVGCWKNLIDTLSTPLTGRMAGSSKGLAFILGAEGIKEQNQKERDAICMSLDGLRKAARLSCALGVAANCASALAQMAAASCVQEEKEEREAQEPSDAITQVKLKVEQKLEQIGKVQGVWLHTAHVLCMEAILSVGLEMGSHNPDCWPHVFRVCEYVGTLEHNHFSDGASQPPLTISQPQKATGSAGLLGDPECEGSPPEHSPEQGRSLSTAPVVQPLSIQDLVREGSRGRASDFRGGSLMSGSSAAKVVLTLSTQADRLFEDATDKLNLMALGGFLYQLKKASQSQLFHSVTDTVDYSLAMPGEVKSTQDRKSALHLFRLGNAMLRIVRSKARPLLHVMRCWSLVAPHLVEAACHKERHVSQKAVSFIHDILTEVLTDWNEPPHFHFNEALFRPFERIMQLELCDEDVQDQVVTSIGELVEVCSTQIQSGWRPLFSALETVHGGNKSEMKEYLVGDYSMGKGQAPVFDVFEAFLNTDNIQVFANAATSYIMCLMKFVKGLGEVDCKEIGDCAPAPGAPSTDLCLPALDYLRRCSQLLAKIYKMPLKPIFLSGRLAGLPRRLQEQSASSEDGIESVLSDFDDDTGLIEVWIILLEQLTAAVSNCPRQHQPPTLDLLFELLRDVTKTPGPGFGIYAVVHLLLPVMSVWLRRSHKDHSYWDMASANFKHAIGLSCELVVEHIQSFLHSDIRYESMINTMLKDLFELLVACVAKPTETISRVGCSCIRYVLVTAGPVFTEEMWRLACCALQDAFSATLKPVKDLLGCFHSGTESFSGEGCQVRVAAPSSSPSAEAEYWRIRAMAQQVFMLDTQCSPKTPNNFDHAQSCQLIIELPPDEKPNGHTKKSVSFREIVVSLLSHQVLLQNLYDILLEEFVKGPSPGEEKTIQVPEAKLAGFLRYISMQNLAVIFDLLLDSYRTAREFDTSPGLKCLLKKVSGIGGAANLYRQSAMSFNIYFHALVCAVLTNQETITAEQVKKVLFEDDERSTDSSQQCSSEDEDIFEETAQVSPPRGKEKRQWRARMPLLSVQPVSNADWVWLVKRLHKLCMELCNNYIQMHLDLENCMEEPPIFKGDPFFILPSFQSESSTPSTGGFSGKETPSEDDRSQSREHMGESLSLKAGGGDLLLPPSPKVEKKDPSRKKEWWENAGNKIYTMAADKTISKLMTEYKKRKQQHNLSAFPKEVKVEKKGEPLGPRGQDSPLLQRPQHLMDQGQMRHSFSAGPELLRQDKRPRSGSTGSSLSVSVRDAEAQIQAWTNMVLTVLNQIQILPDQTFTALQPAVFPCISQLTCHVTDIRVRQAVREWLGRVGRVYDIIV
# Method: as §2
# For immunoprecipitation, MCF-7 was seeded into 10 cm dishes (2×10^6 cells/10 mL), and like cell growth assay, MCF-7 was treated with 10 nM estrogen alone or with 10 nM estrogen and PHB2 sequence-derived peptide. For immunoprecipitation analysis, cell lysates lysed in a cell lysis buffer (50 mM Tris-HCl; pH 8.0, 150 mM NaCl, 0.1% NP-40, and 0.5% CHAPS; 0.1% protease inhibitor cocktail III) were pre-cleared with a rat IgG antibody and rec-Protein G Sepharose 4B (Thermo Fisher Scientific) at 4° C. for 3 hours. Then, the supernatants were incubated for reaction with 5 μg of an antibody against BIG3 at 4° C. for 12 hours. […]
# [8] = MCF-7, 10 μM peptide alone, after 96 hours
# [9] = MCF-7, 4 μM cyclic 11-21aa, 2 μM cyclic 76-88aa, up to 96 hours (FIG. 7B)
# [10] = MCF-10A (FIG. 6B), 1 μM or 10 μM, up to 96 hours
# [11] = MCF-10A, cyclic 11-21aa 4 μM, cyclic 76-88aa 2 μM (FIG. 7C)
molecule,measurement,setting,value
CSCC[C@H](NC(=O)CNC(=O)[C@H](CCCNC(=N)N)NC(=O)[C@@H]1CCCN1C(=O)CNC(=O)[C@H](C)NC(=O)[C@@H]1CCCN1C(=O)[C@H](CC(C)C)NC(=O)[C@@H](N)CCCNC(=N)N)C(=O)NCC(=O)N[C@H](C(=O)N[C@@H](C)C(=O)N[C@@H](CCCNC(=N)N)C(=O)N[C@@H](CCCNC(=N)N)C(=O)N[C@@H](CCCNC(=N)N)C(=O)N[C@@H](CCCNC(=N)N)C(=O)N[C@@H](CCCNC(=N)N)C(=O)N[C@@H](CCCNC(=N)N)C(=O)N[C@@H](CCCNC(=N)N)C(=O)N[C@@H](CCCNC(=N)N)C(=O)O)[C@@H](C)O [No. 1],IC50,[1],462 nM
same,suppression ratio of E2-dependent growth,[2]; listed as 11-22aa,40%
same,suppression ratio of E2-dependent growth,[2]; listed as PHB2 (11-22aa),63%
same,suppression ratio of E2-dependent growth,[2]; listed as SEQ ID NO: 1,about 65%
same,suppression ratio of E2-dependent growth,[3]; [8],31%
same,band intensity of Ser39 phosphorylation of PHB2 compared to ERAP treatment,[4],40%
same,suppression of growth compared to PBS,[5],about 50%
same,inhibition ratio of MCF-10A growth,[6]; MCF-10A,no effect on growth
CC[C@H](C)[C@H](NC(=O)[C@H](CC(=O)O)NC(=O)[C@H](Cc1ccc(O)cc1)NC(=O)[C@@H](NC(=O)[C@@H](NC(=O)[C@@H]1CCCN1C(=O)[C@H](Cc1ccc(O)cc1)NC(=O)[C@@H](N)CCC(N)=O)[C@@H](C)CC)[C@@H](C)CC)C(=O)N[C@@H](CCCNC(=N)N)C(=O)N[C@@H](C)C(=O)N[C@@H](CCCNC(=N)N)C(=O)N1CCC[C@H]1C(=O)N[C@@H](CCCNC(=N)N)C(=O)N[C@@H](CCCCN)C(=O)N[C@H](C(=O)N[C@@H](CCCNC(=N)N)C(=O)N[C@@H](CCCNC(=N)N)C(=O)N[C@@H](CCCNC(=N)N)C(=O)N[C@@H](CCCNC(=N)N)C(=O)N[C@@H](CCCNC(=N)N)C(=O)N[C@@H](CCCNC(=N)N)C(=O)N[C@@H](CCCNC(=N)N)C(=O)N[C@@H](CCCNC(=N)N)C(=O)O)[C@@H](C)CC [No. 5],IC50,[1],273 nM
same,suppression ratio of E2-dependent growth,[2]; listed as 76-90aa,61%
same,suppression ratio of E2-dependent growth,[2]; listed as PHB2 (76-90aa),51%
same,suppression ratio of E2-dependent growth,[3]; [8],24%
same,band intensity of Ser39 phosphorylation of PHB2 compared to ERAP treatment,[4],20%
same,suppression of growth compared to PBS,[5],about 50%
same,inhibition ratio of MCF-10A growth,[6]; MCF-10A,no effect on growth
CCCC[C@@H]1NC(=O)CNC(=O)[C@H](CCCNC(=N)N)NC(=O)[C@@H]2CCCN2C(=O)CNC(=O)[C@H](C)NC(=O)[C@@H]2CCCN2C(=O)[C@H](CC(C)C)NC(=O)[C@H](CCCNC(=N)N)NC(=O)[C@@H]2CSSC[C@H](NC(=O)[C@H]([C@@H](C)O)NC(=O)CNC1=O)C(=O)N[C@@H](Cc1ccccc1)C(=O)N[C@@H](Cc1ccc3ccccc3c1)C(=O)N[C@@H](CCCNC(=N)N)C(=O)N[C@@H](CCCNC(=N)N)C(=O)N[C@@H](CCCNC(=N)N)C(=O)N[C@@H](CCCNC(=N)N)C(=O)N2 [cyclic 11-21aa] (cyclo(CRLPAGPRG[Nle]GTCF[2Nal]RRRR); disulfide 1-13),suppression ratio of E2-dependent growth,[2],enhanced suppression ratios compared to non-cyclic peptides
same,suppression ratio of E2-dependent growth,[2]; listed as cyclic peptide 11-21aa,53%
same,suppression ratio of E2-dependent growth,[3]; [9],41%
same,suppression ratio of E2-dependent growth,[3]; [8],67%
same,effect on growth of MCF-10A,[6]; [10],no effect on the growth
same,effect on growth of MCF-10A,[6]; [11],no effect on growth
CC[C@H](C)[C@@H]1NC(=O)[C@H](CC(=O)O)NC(=O)[C@H](Cc2ccc(O)cc2)NC(=O)[C@H]([C@@H](C)CC)NC(=O)[C@H]([C@@H](C)CC)NC(=O)[C@@H]2CCCN2C(=O)[C@H](Cc2ccc(O)cc2)NC(=O)[C@H](CCC(N)=O)NC(=O)[C@@H]2CSSC[C@H](NC(=O)[C@H](CCCNC(=N)N)NC(=O)[C@@H]3CCCN3C(=O)[C@H](CCCNC(=N)N)NC(=O)[C@H](C)NC(=O)[C@H](CCCNC(=N)N)NC1=O)C(=O)N[C@@H](Cc1ccccc1)C(=O)N[C@@H](Cc1ccc3ccccc3c1)C(=O)N[C@@H](CCCNC(=N)N)C(=O)N[C@@H](CCCNC(=N)N)C(=O)N[C@@H](CCCNC(=N)N)C(=O)N[C@@H](CCCNC(=N)N)C(=O)N2 [cyclic 76-88aa] (cyclo(CQYPIIYDIRARPRCF[2Nal]RRRR); disulfide 1-15),suppression ratio of E2-dependent growth,[2],enhanced suppression ratios compared to non-cyclic peptides
same,suppression ratio of E2-dependent growth,[2]; listed as cyclic peptide 76-88aa,58%
same,suppression ratio of E2-dependent growth,[3]; [9],59%
same,suppression ratio of E2-dependent growth,[3]; [8],72%
same,effect on growth of MCF-10A,[6]; [10],no effect on the growth
same,effect on growth of MCF-10A,[6]; [11],no effect on growth
No. 6: PHB2 peptide 86-100aa (negative control) (RPRKISSPTGSKDLQ; not fully specified (C-terminus)),suppression ratio of E2-dependent growth,[2],about 10%
same,band intensity of Ser39 phosphorylation of PHB2 compared to ERAP treatment,[4],10%
"branched bound: 11-22aa and 76-90aa sequences synthesized with branching, linked via a PEG sequence (peptide 1 RLPAGPRGMGTA; peptide 2 QYPIIYDIRARPRKI; linker (positions not given here) via PEG; not fully specified (N-terminus); reading uncertain; also: branched construct, branch and link places not given here)",suppression ratio of E2-dependent growth,[2],57%
same,inhibition ratio of MCF-10A growth,[6]; MCF-10A,no effect on growth
"11-90aa: PHB2 peptide of 11-90aa comprising the two regions of No. 1 and No. 5; 80 amino acids (PHB2 derived peptide 11-90aa, PHB2 peptide of 11-90aa comprising the two regions of No. 1 and No. 5; 80 amino acids) RLPAGPRGMGTALKLLLGAGAVAYGVRESVFTVEGGHRAIFFNRIGGVQQDTILAEGLHFRIPWFQYPIIYDIRARPRKI",inhibition of the binding between BIG3 and PHB2,[7],did not provide a sufficient effect of inhibiting the binding
